Like-named read-outs stand apart in the source and are kept apart here.
Legend:
VSV-G pseudovirus = assay: microbe, parasite or virus in culture; format: cell-based; conditions: read-out: VSV-G Pseudovirus EC50
[1] = tested on: SARS-CoV-2 S-G614 pseudovirus; conditions: for EC50: read-out: S-G614 Pseudovirus EC50
in vitro = conditions: human, 293T-ACE2 CC50
[2] = tested on: SARS-CoV-2 S-G614 pseudovirus; assay: organism not typed; conditions: 293T/ACE2, read-out: S-G614 Pseudovirus EC50
S-G614 pseudovirus [3] = assay: microbe, parasite or virus in culture; format: cell-based, SARS-CoV-2; conditions: for EC50: Pseudovirus, 293T/ACE2, read-out: 293T-ACE2 Cells EC50 BAPTA-AM (0μM)
[4] = tested on: SARS-CoV-2 S-mediated membrane fusion of 293T-ACE2 cells; format: cell-based
native SARS-CoV-2 = format: cell-based
[5] = molecular target: receptor-binding domain (RBD) in the S protein of SARS-CoV-2 (Severe acute respiratory syndrome coronavirus 2, UniProt P0DTC2)
S-G614 pseudovirus [6] = assay: microbe, parasite or virus in culture; format: cell-based; conditions: read-out: EC50 against S-G614 pseudovirus in all three cell lines
SARS-CoV-2 = conditions: cited from earlier work

Molecule: CCOC(=O)[C@H]1O[C@@H]1C(=O)N[C@@H](CC(C)C)C(=O)NCCC(C)C [Aloxistatin, aloxistatin, reference compound]
- EC50 (VSV-G pseudovirus; Pseudovirus): > 50 µM
- SI (cytotoxicity) ([1]; human): >54.17
- CC50 (in vitro): > 50 µM
- EC50 [2]: 0.923 µM

Molecule: CC(=O)OCOC(=O)CN(CC(=O)OCOC(C)=O)c1ccccc1OCCOc1ccccc1N(CC(=O)OCOC(C)=O)CC(=O)OCOC(C)=O [BAPTA-AM, reference compound]
- SARS-CoV-2 pseudovirus infection on intracellular Ca2+ chelation (S-G614 pseudovirus [3]): significantly diminished

Molecule: COc1c2c(cc3c1-c1c(cc4c(c1OC)OCO4)C[C@H](C)[C@H](C)C3)OCO2 [SC8, Schisandrin C]
- SI (cytotoxicity) ([1]; human): >3.43
- CC50 (in vitro): > 50 µM
- EC50 [2]: 14.6 µM

Molecule: COc1ccc2cc1Oc1ccc(cc1)C[C@H]1c3c(cc4c(c3Oc3cc5c(cc3OC)CCN(C)[C@@H]5C2)OCO4)CCN1C [SC9, Cepharanthine]
- decrease of fusion rates [4]: approximately 90%
- EC50 (S-G614 pseudovirus [3]): 0.315 µM
- Virus-induced cytopathogenic effect and viral RNA levels (native SARS-CoV-2): partially inhibited
- relative viral RNA levels (native SARS-CoV-2): 0.08%
- interaction with RBD [5]: negligible
- EC50 (S-G614 pseudovirus [6]): < 10 µM

Molecule: CC(N)C12CC3CC(CC(C3)C1)C2.Cl (stereo not shown) [SC16, Rimantadine (hydrochloride)]
- CC50 (293T-ACE2 cells): > 50 µM
- SI (cytotoxicity) [1]: >1.45
- EC50 [1]: 34.6 µM

Molecule: Cc1cccc2c3c(ccc12)C1=C(C(=O)C3=O)[C@@H](C)CO1 [SC24, Dihydrotanshinone I]
- SI (cytotoxicity) ([1]; human): 0.90
- CC50 (in vitro): 33.5 µM
- EC50 [2]: 15.7 µM

Molecule: Cl.N=c1ccn2c(n1)O[C@H]1[C@H](O)[C@@H](CO)O[C@H]12 [SC33, Ancitabine (hydrochloride)]
- EC50 (VSV-G pseudovirus): > 50 µM
- CC50 (293T-ACE2 cells): > 50 µM
- SI (cytotoxicity) [1]: >4.94
- EC50 [1]: 10.1 µM

Molecule: O=C1Nc2ccc(Cl)cc2[C@@](C#CC2CC2)(C(F)(F)F)O1 [SC102, Efavirenz]
- EC50 (VSV-G pseudovirus; Pseudovirus): 0.000723 µM
- SI (cytotoxicity) ([1]; human): >130890
- CC50 (in vitro): > 50 µM
- EC50 [2]: 0.00038 µM

Molecule: Cc1nnc(C(=O)NC(C)(C)c2nc(C(=O)NCc3ccc(F)cc3)c([O-])c(=O)n2C)o1.[K+] [SC109, Raltegravir (potassium salt)]
- EC50 (VSV-G pseudovirus): 0.0359 µM
- CC50 (293T-ACE2 cells): > 50 µM
- SI (cytotoxicity) [1]: >247647
- EC50 [1]: 0.0002 µM

Molecule: COc1ccc2cc1Oc1ccc(cc1)C[C@H]1c3cc(c(OC)cc3CCN1C)Oc1c(OC)c(OC)c(OC)c3c1[C@H](C2)N(C)CC3 [SC161, Hernandezine]
- decrease of fusion rates [4]: approximately 90%
- EC50 (S-G614 pseudovirus [3]): 0.111 µM
- Virus-induced cytopathogenic effect and viral RNA levels (native SARS-CoV-2): partially inhibited
- relative viral RNA levels (native SARS-CoV-2): 70.27%
- interaction with RBD [5]: negligible
- EC50 (S-G614 pseudovirus [6]): < 10 µM

Molecule: CC1CCN(CC(O)COc2cccc(OCC(O)CN3CCC(C)CC3)c2)CC1 (stereo not shown) [SC171, 3,3'-(1,3-phenylenebis(oxy))bis(1-(4-methylpiperidin-1-yl)propan-2-ol)]
- EC50 (S-G614 pseudovirus [3]): 3.83 µM
- Virus-induced cytopathogenic effect and viral RNA levels (native SARS-CoV-2): partially inhibited
- relative viral RNA levels (native SARS-CoV-2): 43.55%
- interaction with RBD [5]: negligible
- EC50 (S-G614 pseudovirus [6]): < 10 µM

Molecule: COc1ccc2cc1Oc1ccc(cc1)C[C@H]1c3cc(c(OC)cc3CCN1C)Oc1c(O)c(OC)cc3c1[C@H](C2)N(C)CC3 [SC180, Fangchinoline]
- EC50 (VSV-G pseudovirus; Pseudovirus): 4.39 µM
- SI (cytotoxicity) ([1]; human): >53.39
- CC50 (in vitro): > 50 µM
- EC50 [2]: 0.94 µM

Molecule: COc1ccc2cc1Oc1ccc(cc1)CC1c3cc(c(OC)cc3CCN1C)Oc1c(O)c(OC)cc3c1C(C2)N(C)CC3 (stereo not shown) [SC181, Isofangchinoline]
- EC50 (VSV-G pseudovirus): 3.95 µM
- CC50 (293T-ACE2 cells): > 50 µM
- SI (cytotoxicity) [1]: >45.00
- EC50 [1]: 1.11 µM

Molecule: COc1ccc2cc1Oc1ccc(cc1)C[C@H]1c3cc(c(OC)cc3CCN1C)Oc1c(OC)c(OC)cc3c1[C@H](C2)N(C)CC3 [SC182, Tetrandrine]
- EC50 (VSV-G pseudovirus; Pseudovirus): 27.9 µM
- decrease of fusion rates [4]: approximately 90%
- EC50 (S-G614 pseudovirus [6]): < 10 µM
- SI (cytotoxicity) ([1]; human): >55.80
- CC50 (in vitro): > 50 µM
- EC50 [2]: 0.9 µM

Molecule: COc1cc2c(cc1OC)[C@@H](Cc1ccc(Oc3cc(C[C@@H]4c5cc(OC)c(OC)cc5CCN4C)ccc3O)cc1)N(C)CC2 [SC184, Dauricine]
- EC50 (VSV-G pseudovirus; Pseudovirus): > 50 µM
- SI (cytotoxicity) ([1]; human): >34.99
- CC50 (in vitro): > 50 µM
- EC50 [2]: 1.43 µM

Molecule: COc1ccc(C[C@@H]2c3cc(Oc4cc(C[C@@H]5c6cc(OC)c(OC)cc6CCN5C)ccc4O)c(OC)cc3CCN2C)cc1 [SC185, Neferine]
- EC50 (VSV-G pseudovirus; Pseudovirus): > 50 µM
- decrease of fusion rates [4]: approximately 90%
- EC50 (S-G614 pseudovirus [3]): 0.946 µM
- Virus-induced cytopathogenic effect and viral RNA levels (native SARS-CoV-2): partially inhibited
- relative viral RNA levels (native SARS-CoV-2): 76.98%
- interaction with RBD [5]: negligible
- EC50 (S-G614 pseudovirus [6]): < 10 µM
- CC50 (in vitro): > 50 µM
- EC50 [2]: 0.95 µM

Molecule: COc1cc2c(cc1OC)[C@@H](Cc1ccc(O)c(Oc3cc4c(cc3OC)CCN(C)[C@@H]4Cc3ccc(O)cc3)c1)N(C)CC2 [SC186, Liensinine]
- EC50 (VSV-G pseudovirus): > 50 µM
- CC50 (293T-ACE2 cells): > 50 µM
- SI (cytotoxicity) [1]: >49.80
- EC50 [1]: 1 µM

Molecule: COc1cc2c(cc1O)[C@@H](Cc1ccc(O)c(Oc3ccc(C[C@@H]4c5cc(OC)c(OC)cc5CCN4C)cc3)c1)N(C)CC2 [SC187, Daurisoline]
- EC50 (VSV-G pseudovirus): > 50 µM
- CC50 (293T-ACE2 cells): > 50 µM
- SI (cytotoxicity) [1]: >20.13
- EC50 [1]: 2.48 µM

Molecule: COc1ccc(C[C@@H]2c3cc(Oc4cc(C[C@@H]5c6cc(O)c(OC)cc6CCN5C)ccc4O)c(OC)cc3CCN2C)cc1 [SC188, Isoliensinine]
- EC50 (VSV-G pseudovirus; Pseudovirus): 7.02 µM
- SI (cytotoxicity) ([1]; human): >38.88
- CC50 (in vitro): > 50 µM
- EC50 [2]: 1.29 µM

Molecule: CCOC(=O)C1=C(COCCN)NC(C)=C(C(=O)OC)C1c1ccccc1Cl (stereo not shown) [amlodipine]
- viral infection (SARS-CoV-2): reduced viral infection

Molecule: Aloperine [SC96]
- EC50 (VSV-G pseudovirus): 10.8 µM
- CC50 (293T-ACE2 cells): > 50 µM
- SI (cytotoxicity) [1]: >176.87
- EC50 [1]: 0.28 µM

Molecule: Berbamine hydrochloride [SC183]
- EC50 (VSV-G pseudovirus): > 50 µM
- CC50 (293T-ACE2 cells; human): > 50 µM
- SI (cytotoxicity) ([1]; human): >38.94
- EC50 [1]: 1.28 µM
